Structures are written as SMILES. Where a name gives a salt, the structure may show the parent alone. Read-outs that look alike come from different tables or passages of the source.

For orientation: solubility means how much of the substance goes into solution per volume. A high value points to much dissolved substance.

One data set relates to male Swiss mice. As to the kind of experiment: Rota-Rod test. In kind it is in vivo. The conditions noted are these: falls off rod in less than 2 minutes. How it is done:
This test is carried out on male Swiss mice. The mouse is placed on a 3 cm diameter wooden rod rotating at 5 revolutions per minute. The mice which succeed in remaining on the rod for at least 3 minutes in successive tests are selected and gathered into groups of 10 for the test of each dose. If the mouse falls off the rod in less than 2 minutes, the tested compound is considered to be effective. The results are expressed by the effective dose DE50 according to N. W. Dunham and T. S. Miva--J. amer. pharm. Ass., 1957, 46, 208.

A further data set in a line: Solubility. The following applies: for solubility in ethanol: in ethanol at 95° GL; for solubility in water (in words) / solubility: in water. In kind it is physicochemical.
Data set [1] relates to pentamethylene tetrazole-induced tonic spasms. As to the kind of experiment: Anti-pentamethylene tetrazole activity. The conditions noted are these: Mus musculus, male Swiss mice. In kind it is in vivo, male mice of the Swiss strain. How it is done: This test is carried out on a group of 10 male mice of the Swiss strain. 15 minutes after the subcutaneous injection of 125 mg/kg of pentamethylene tetrazole, the mice have tonic spasms of which the outcome is fatal.
For the test, the compound is administered orally 60 minutes before the injection of pentamethylene tetrazole. The animals are observed for 2 hours after administration of the pentamethylene tetrazole. In some particular cases, the tests were confirmed by intraperitoneal administration. The results are expressed by the effective dose DE50 (Goodman et Col.--J. Pharmacol. 108, 1953).
As Japanese Pat. No. 148,340 has been cited in copending application Ser. No. 916,651, filed June 19, 1978, comparisons between compounds of this closest prior art and the compounds of the invention were undertaken in the form of a controlled study.
The major consideration surrounded the similarity in the compounds, particularly in the substitution at the R position. The study compared ten compounds of the invention, which differed from the Japanese prior art only in that the compounds of the invention are alkylated at the R position while the prior art compounds are all hydrogenated at that position.
The compounds were tested for anti-pentamethylene tetrazole activity, the test described on p.

The nature of data set [2]: Toxicity test (LD50, Miller and Tainter). The conditions noted are these: mouse, in vivo, mice. How it is done:
The compounds according to the invention were subjected to toxicity tests. It was tested in batches of 10 mice by oral, intraperitoneal and, in some cases, intravenous administration and was calculated in accordance with Miller and Tainter's method (Proc. Soc. exper. Biol. Med., 1944, 57, 261).

[3] abbreviates: ip, intraperitoneal, 125 mg/kg s.c. pentamethylene tetrazole, read-out: anti-pentamethylene tetrazole activity DE50 I.P.
[4] abbreviates: oral, 60 min before 125 mg/kg s.c. pentamethylene tetrazole, read-out: anti-pentamethylene tetrazole activity DE50 P.O.
The mark [5] stands for this setting: ip, intraperitoneal, read-out: DL50 I.P.
Setting [6] is: intravenous, read-out: DL50 I.V.

As for `CN(CCO)CC(=O)N(C)c1ccc(Cl)cc1C(=O)c1ccccc1` [Example 14, N,N'-dimethyl-N'-(2'-hydroxyethyl)-(2-benzoyl-4-chloro)-glycinanilide], in the data set with male Swiss mice, the “Rota Rod DE50 V.O.” value came out at 66. In “Solubility”, the “solubility in dimethyl formamide” value amounted to 20%. This molecule also had a solubility in ethanol in the data set “Solubility” of 20%. Also, the “solubility in water (in words)” value in the data set “Solubility” is listed as “insoluble”. Besides, the ED50 worked out at 1.5 mg/kg in data set [1] (setting [3]) and 1.7 mg/kg in data set [1] (setting [4]). In addition, the LD50 was determined as 350 mg/kg in data set [2] (setting [5]); 55 mg/kg in data set [2] (setting [6]); 1200 mg/kg in data set [2] (oral, read-out: DL50 oral).

With `C=C(C)CNCC(=O)N(C)c1ccc(Cl)cc1C(=O)c1ccccc1` [Example 19, N-Methyl-N'-(2'-methylallyl)-(2-benzoyl-4-chloro)-glycinanilide hydrochloride], the “Rota Rod DE50 V.O.” value with male Swiss mice stood at 21. Moreover, the solubility in the data set “Solubility” came to 50 mg/mL. Moreover, the ED50 in data set [1] (setting [3]) was 1.1 mg/kg; in data set [1] (setting [4]) it was 1.7 mg/kg. For the same molecule, the LD50 turned out to be 500 mg/kg in data set [2] (setting [5]); 60 mg/kg in data set [2] (setting [6]); 1500 mg/kg in data set [2] (oral, read-out: DL50 oral).

Regarding `CN(C(=O)CNC1CCCCC1)c1ccc(Cl)cc1C(=O)c1ccccc1` [Example 11, N-Methyl-N'-cyclohexyl-(2-benzoyl-4-chloro)-glycinanilide hydrochloride], the “Rota Rod DE50 V.O.” value in the data set on male Swiss mice was 27. In the data set “Solubility”, the “solubility in dimethyl formamide” value is recorded as 1%. In “Solubility”, the solubility in ethanol is reported as 3%. Moreover, the “solubility in water (in words)” value in the data set “Solubility” is given as “insoluble”. The ED50 was determined as 1.25 mg/kg in data set [1] (setting [3]) and 1.35 mg/kg in data set [1] (setting [4]). The LD50 amounted to 305 mg/kg in data set [2] (setting [5]); 50 mg/kg in data set [2] (setting [6]); 1050 mg/kg in data set [2] (oral, read-out: DL50 oral).

`CC(C)N(CC(=O)N(C)c1ccc(Cl)cc1C(=O)c1ccccc1)C1CCCCC1` [Example 21, N-Methyl-N'-isopropyl-N'-cyclohexyl-(2-benzoyl-4-chloro)glycinanilide hydrochloride] came in with a solubility in the data set “Solubility” of 50 mg/mL. For the same molecule, the ED50 in data set [1] (setting [4]) turned out to be 2.2 mg/kg. Also, the LD50 in data set [2] (setting [5]) was found to be 500 mg/kg; in data set [2] (oral, read-out: DL50 oral) it was 1000 mg/kg.

In “Solubility”, `C#CC(C)(C)NCC(=O)N(C)c1ccc(Cl)cc1C(=O)c1ccccc1` [Example 2, N-Methyl-N'-1,1-dimethyl-propargyl-(2-benzoyl-4-chloro)-glycinanilide hydrochloride] showed a solubility of 10 mg/mL. The ED50 in data set [1] (setting [4]) is 1.5 mg/kg. In addition, the LD50 in data set [2] (setting [5]) was 450 mg/kg; in data set [2] (oral, read-out: DL50 oral), greater than 1000 mg/kg.

In turn, `CN(C(=O)CN(CCO)CCO)c1ccc(Cl)cc1C(=O)c1ccccc1` [Example 16, N-Methyl-N',N'-bis-(2'-hydroxyethyl)-(2-benzoyl-4-chloro)-glycinanilide hydrochloride] yielded a solubility in the data set “Solubility” of 50 mg/mL. In data set [1] (setting [4]), the ED50 worked out at 3.4 mg/kg. The LD50 in data set [2] (setting [5]) is greater than 500 mg/kg; in data set [2] (oral, read-out: DL50 oral) it was greater than 1000 mg/kg.

Turning to `CN(C(=O)CN1CCOCC1)c1ccc(Cl)cc1C(=O)c1ccccc1` [Example 18, N-Methyl-2-morpholino-(2'-benzoyl-4'-chloro)-acetanilide hydrochloride], the “Rota Rod DE50 V.O.” value in the data set on male Swiss mice is recorded as 60. The solubility in “Solubility” is 100 mg/mL. The ED50 in data set [1] (setting [3]) was determined as 1.4 mg/kg; in data set [1] (setting [4]), 3.3 mg/kg. Also, the LD50 in data set [2] (setting [5]) is 750 mg/kg; in data set [2] (setting [6]), 103 mg/kg; in data set [2] (oral, read-out: DL50 oral) it was 1700 mg/kg.

Consider `CCN(CCO)CC(=O)N(C)c1ccc(Cl)cc1C(=O)c1ccccc1` [Example 15, N-Methyl-N'-ethyl-N'-(2'-hydroxyethyl)-(2-benzoyl-4-chloro)-glycinanilide], for which, in “Solubility”, the “solubility in dimethyl formamide” value amounted to 30%, the solubility in ethanol is recorded as 10% and the “solubility in water (in words)” value was “insoluble”. Moreover, the ED50 in data set [1] (setting [4]) was determined as 2.9 mg/kg. The LD50 in data set [2] (setting [5]) was 150 mg/kg. Moreover, in data set [2] (oral, read-out: DL50 oral), the LD50 worked out at 550 mg/kg.

These data come from patent US4372975A, “Substituted 2-benzoyl-4-chloroglycinanilide derivatives, a process for their production, and their use as medicaments” (Pierre Fabre SA, priority 1977, dated 1983).
